Reference: patent publication US20190225650A1, “PEPTIDOMIMETIC MACROCYCLES AND USE THEREOF IN REGULATING HIF1ALPHA” (AILERON THERAPEUTICS, INC., priority 2013, published 2019)
Bridge positions count the residues as written; N and C are the ends. Square brackets hold non-standard residues; d marks the D form. Peptide text beside a SMILES is read from it. R8 = C=CCCCCCC[C@@](C)(N)C(=O)O; S5 = C=CCCC[C@](C)(N)C(=O)O; Nle = CCCC[C@H](N)C(=O)O

How the values were obtained:
[1] = biological target: T1, flag-tagged HIF1α (AA 786-826) / His6-tagged p300 (AA 323-423) complex (Homo sapiens, UniProt Q09472); assay: HIF1α p300 displacement assay (TR FRET, +CHAPS); format: binding; conditions: read-out: IC50 (nM) (HIF1α_p300 Displacement + CHAPS)
T1 construct: His6-tagged p300 (AA 323-423); made in house; host or cells: E. coli (pETDuet vector)
Procedure, shortened: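 The co-expressed flag-HIF1α (786-826)/His6-p300 (323-423) complex, purified from E. coli with 0.1 mM ZnSO4, was used at 300 nM final with competitor peptides for 1 h at room temperature. Buffer was 150 mM NaCl, 20 mM HEPES pH 7.4, 7.5 mM CHAPS and 1 mM DTT. Anti-Flag-K (0.5 μM) and anti-His-D2 (4 nM) were then added for 2 h, and IC50s were fitted from the TR-FRET ratio.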

HRE-bla ME-180 cells = assay: Reporter gene assay (HRE-bla ME-180 HIF reporter, GeneBLAzer); format: cell-based, human; conditions: for EC50: 24 hour normoxia
Procedure, shortened: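 A FRET β-lactamase readout of HIF transcription was used. After compound treatment in 0.3% DMSO/media under normoxic conditions, 20 μl of 6× LiveBLAzer-FRET B/G (CCF4-AM) substrate was added. Plates sat 3 hr at room temperature in the dark and were read at 409 Ex/460Em and 409Ex/530Em on a Synergy 2. Inhibition was compared against DMSO vehicle controls, with chetomin as positive control.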

Structure (SMILES)	IC50 [1]	EC50 (HRE-bla ME-180 cells)	18 h Avg % max inhibition at top conc (HIF Rptr-24 hrs normoxia) (μM) (HRE-bla ME-180 cells)
CC[C@H](C)[C@H](NC(=O)[C@H](Cc1ccccc1)NC(C)=O)C(=O)N[C@H](C(=O)N[C@@H](CCC(=O)O)C(=O)N[C@@H](CCC(=O)O)C(=O)N[C@H](C(=O)N[C@@H](CC(C)C)C(=O)N[C@@H](CCSC)C(=O)N[C@@]1(C)CCCC=CCCC[C@@](C)(C(=O)N[C@@H](CCSC)C(=O)N[C@@H](C)C(=O)N[C@@H](CC(C)C)C(N)=O)NC(=O)[C@H]([C@@H](C)CC)NC(=O)[C@H](C(C)C)NC(=O)[C@H](CC(C)C)NC1=O)C(C)C)[C@@H](C)O [SP-231] (Ac-FITEEVLM[S5]LVI[S5]MAL-NH2; staple 9-13)	> 700 nM	> 30 µM	+ (<10: +)
CCCC[C@H](NC(=O)[C@H](CCC(=O)O)NC(=O)[C@@H](NC(=O)[C@@H](NC(=O)[C@H](CC(C)C)NC(=O)[C@]1(C)CCCC=CCCC[C@](C)(NC(=O)[C@H](CCC(=O)O)NC(=O)[C@H](CC(=O)O)NC(=O)[C@@H](NC(=O)[C@H](Cc2ccccc2)NC(C)=O)[C@@H](C)CC)C(=O)N[C@@H](C(C)C)C(=O)N[C@@H](CC(C)C)C(=O)N[C@@H](CCCC)C(=O)N1)C(C)C)[C@@H](C)CC)C(=O)NCC(=O)N[C@@H](CC(C)C)C(=O)N[C@@H](CC(=O)O)C(=O)N[C@@H](CCCNC(=N)N)C(=O)N[C@H](C(=O)N[C@@H](CCCCN)C(=O)N[C@@H](CCC(=O)O)C(=O)N[C@@H](CC(C)C)C(=O)N1CCC[C@H]1C(=O)N[C@@H](CCC(=O)O)C(=O)N[C@@H](CC(C)C)C(=O)N[C@@H](Cc1c[nH]c2ccccc12)C(=O)N[C@@H](CC(C)C)C(N)=O)[C@@H](C)CC [SP-105] (Ac-FIDE[S5]VL[Nle][S5]LVIE[Nle]GLDRIKELPELWL-NH2; staple 5-9)	≤ 200 nM	> 30 µM	–
CCCC[C@H](NC(=O)[C@H](CC(C)C)NC(=O)[C@@H](NC(=O)[C@H](CCC(=O)O)NC(=O)[C@H](CCC(=O)O)NC(=O)[C@H](CC(=O)O)NC(=O)[C@@H](NC(=O)[C@H](Cc1ccccc1)NC(C)=O)[C@@H](C)CC)C(C)C)C(=O)N[C@@]1(C)CCCC=CCCC[C@@](C)(C(=O)N[C@@H](CCCC)C(=O)N[C@@H](C)C(=O)N[C@@H](CC(C)C)C(N)=O)NC(=O)[C@H]([C@@H](C)CC)NC(=O)[C@H](C(C)C)NC(=O)[C@H](Cc2ccccc2)NC1=O [SP-219] (Ac-FIDEEVL[Nle][S5]FVI[S5][Nle]AL-NH2; staple 9-13)	400 to 700 nM	> 30 µM	++ (≤10 but <25: ++)
CC[C@H](C)[C@H](NC(=O)[C@H](Cc1ccccc1)NC(C)=O)C(=O)N[C@@H](CC(N)=O)C(=O)N[C@@H](CCC(=O)O)C(=O)N[C@@H](CCC(=O)O)C(=O)N[C@H](C(=O)N[C@@H](CC(C)C)C(=O)N[C@@H](CCSC)C(=O)N[C@@]1(C)CCCC=CCCC[C@@](C)(C(=O)N[C@@H](CCSC)C(=O)N[C@@H](C)C(=O)N[C@@H](CC(C)C)C(N)=O)NC(=O)[C@H]([C@@H](C)CC)NC(=O)[C@H](C(C)C)NC(=O)[C@H](CC(C)C)NC1=O)C(C)C [SP-232] (Ac-FINEEVLM[S5]LVI[S5]MAL-NH2; staple 9-13)	400 to 700 nM	> 30 µM	++ (≤10 but <25: ++)

More lines, main results first:

IC50 [1]	EC50 (HRE-bla ME-180 cells)	Structure (SMILES)	18 h Avg % max inhibition at top conc (HIF Rptr-24 hrs normoxia) (μM) (HRE-bla ME-180 cells)
400 to 700 nM	> 30 µM	CCCC[C@H](NC(=O)[C@H](C)NC(=O)[C@@H](NC(=O)[C@@H](NC(=O)[C@H](CC(C)C)NC(=O)[C@]1(C)CCCC=CCCC[C@](C)(NC(=O)[C@H](CCC(=O)O)NC(=O)[C@H](C)NC(=O)[C@@H](NC(=O)[C@H](Cc2ccccc2)NC(C)=O)[C@@H](C)CC)C(=O)N[C@@H](C(C)C)C(=O)N[C@@H](CC(C)C)C(=O)N[C@@H](CCCC)C(=O)N1)C(C)C)[C@@H](C)CC)C(=O)N[C@@H](C)C(=O)N[C@@H](CC(C)C)C(=O)N[C@@H](CC(=O)O)C(=O)N[C@@H](C)C(=O)N[C@H](C(N)=O)[C@@H](C)CC [SP-121] (Ac-FIAE[S5]VL[Nle][S5]LVIA[Nle]ALDAI-NH2; staple 5-9)	–
400 to 700 nM	> 30 µM	CCCC[C@H](NC(=O)[C@H](C)NC(=O)[C@]1(C)CCCC=CCCCCCC[C@@](C)(NC(=O)[C@H](CCC(=O)O)NC(=O)[C@H](C)NC(=O)[C@@H](NC(=O)[C@H](Cc2ccccc2)NC(C)=O)[C@@H](C)CC)C(=O)N[C@@H](C(C)C)C(=O)N[C@@H](CC(C)C)C(=O)N[C@@H](CCCC)C(=O)N[C@@H](CO)C(=O)N[C@@H](CC(C)C)C(=O)N[C@@H](C(C)C)C(=O)N1)C(=O)N[C@@H](C)C(=O)N[C@@H](CC(C)C)C(=O)N[C@@H](CC(=O)O)C(=O)N[C@@H](C)C(=O)N[C@H](C(N)=O)[C@@H](C)CC [SP-193] (Ac-FIAE[R8]VL[Nle]SLV[S5]A[Nle]ALDAI-NH2; staple 5-12)	+ (<10: +)
> 700 nM	> 30 µM	CCCC[C@@H]1NC(=O)[C@H](CC(C)C)NC(=O)[C@H](CCCNC(=N)N)NC(=O)[C@@](C)(NC(=O)[C@H](CCC(=O)O)NC(=O)[C@H](CC(=O)O)NC(=O)[C@@H](NC(=O)[C@H](Cc2ccccc2)NC(C)=O)[C@@H](C)CC)CCCC=CCCCC2(CCCC=CCCC[C@](C)(C(=O)N[C@@H](CCCC)C(=O)N[C@@H](C)C(=O)N[C@@H](CC(C)C)C(N)=O)NC(=O)[C@H]([C@@H](C)CC)NC(=O)[C@H](C(C)C)NC(=O)[C@H](CC(C)C)NC2=O)NC1=O (stereo partly shown) [SP-206]	+ (<10: +)
200 to 400 nM	15 to 30 µM	CCCC[C@H](NC(=O)[C@H](C)NC(=O)[C@H](C)NC(=O)[C@H](CCCC)NC(=O)[C@H](C)NC(=O)[C@H](CCCC)NC(=O)[C@H](CC(C)C)NC(=O)[C@@H](NC(=O)[C@@H](NC(=O)[C@H](CC(C)C)NC(=O)[C@]1(C)CCCC=CCCC[C@](C)(NC(=O)[C@H](CCC(=O)O)NC(=O)[C@H](CC(=O)O)NC(=O)[C@@H](NC(=O)[C@H](Cc2ccccc2)NC(C)=O)[C@@H](C)CC)C(=O)N[C@@H](C(C)C)C(=O)N[C@@H](CC(C)C)C(=O)N[C@@H](CCCC)C(=O)N1)C(C)C)[C@@H](C)CC)C(N)=O [SP-126] (Ac-FIDE[S5]VL[Nle][S5]LVIL[Nle]A[Nle]AA[Nle]-NH2; staple 5-9)	++++ (≥50: ++++)
400 to 700 nM	> 30 µM	CC[C@H](C)[C@H](NC(=O)[C@H](Cc1ccccc1)NC(C)=O)C(=O)N[C@@H](CC(=O)O)C(=O)N[C@@H](CCC(=O)O)C(=O)N[C@@H](CO)C(=O)N[C@H](C(=O)N[C@@H](CC(C)C)C(=O)N[C@@H](CCSC)C(=O)N[C@@]1(C)CCCC=CCCC[C@@](C)(C(=O)N[C@@H](CCSC)C(=O)N[C@@H](C)C(=O)N[C@@H](CC(C)C)C(N)=O)NC(=O)[C@H]([C@@H](C)CC)NC(=O)[C@H](C(C)C)NC(=O)[C@H](CC(C)C)NC1=O)C(C)C [SP-238] (Ac-FIDESVLM[S5]LVI[S5]MAL-NH2; staple 9-13)	++ (≤10 but <25: ++)
> 700 nM	> 30 µM	CCCC[C@@H]1NC(=O)[C@H](CC(C)C)NC(=O)[C@H](C(C)C)NC(=O)[C@@](C)(NC(=O)[C@H](CCC(=O)O)NC(=O)[C@H](CC(=O)O)NC(=O)[C@@H](NC(=O)[C@H](Cc2ccccc2)NC(C)=O)[C@@H](C)CC)CCCC=CCCCC2(CCCC=CCCC[C@](C)(C(=O)N[C@@H](CCCC)C(=O)N[C@@H](C)C(=O)N[C@@H](CC(C)C)C(N)=O)NC(=O)[C@H]([C@@H](C)CC)NC(=O)[C@H](C(C)C)NC(=O)[C@H](CCCNC(=N)N)NC2=O)NC1=O (stereo partly shown) [SP-209]	++ (≤10 but <25: ++)
